Earlier results, collected in patent publication US11229674B1, “Nutraceuticals for suppressing indolamine 2,3 deoxygenase” (Therapeutic Solutions International, Inc., priority 2020, dated 2022).

What was measured:
IDO [1] = biological target: T1, IDO (Mus musculus, UniProt P28776); conditions: pregnant mice, allogeneic fetuses
T1 construct: host or cells: tumour-bearing mice (whole animal)

IDO [2] = biological target: T1, IDO; conditions: mice, combined with chemotherapeutic agents

T1 sequence (P28776 whole entry): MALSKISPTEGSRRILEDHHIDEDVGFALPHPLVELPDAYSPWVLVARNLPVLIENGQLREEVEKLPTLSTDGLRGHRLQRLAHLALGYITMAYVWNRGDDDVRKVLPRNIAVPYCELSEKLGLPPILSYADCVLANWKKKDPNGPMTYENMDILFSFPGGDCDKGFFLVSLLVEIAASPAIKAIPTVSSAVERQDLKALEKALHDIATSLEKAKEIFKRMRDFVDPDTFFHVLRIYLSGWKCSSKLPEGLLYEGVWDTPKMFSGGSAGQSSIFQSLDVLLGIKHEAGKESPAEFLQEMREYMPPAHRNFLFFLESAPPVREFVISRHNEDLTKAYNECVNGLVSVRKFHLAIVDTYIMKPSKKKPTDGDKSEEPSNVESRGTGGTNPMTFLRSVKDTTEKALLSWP

Question: With `Cn1cc(CC(N)C(=O)O)c2ccccc21` (centres unmarked) [1MT] as the molecule, how does the Fetal allograft rejection (IDO [1]) read?
Answer: rapid, T cell-induced rejection of all allogeneic concept

Question: What about the Tumor growth (IDO [2]) of the same molecule?
Answer: synergize with chemotherapeutic agents to reduce tumor growth
